The text below walks through data of patent publication US10052340B2 (XIAMEN UNIVERSITY, priority 2012, dated 2018).

The subject of one assay is KK-Ay mice. Briefly: Mouse trial, KK-Ay diabetes and obesity model mice fed with high-fat diet. The class given is in vivo. The conditions noted are these: for serum cholesterol / serum triglycerides: ivermectin/derivatives 1.3 mg/kg; for cholesterol in high density lipoprotein in serum / cholesterol in low density/very low density lipoprotein in serum / serum saccharides (glucose) level: 1.3 mg/kg i.p. daily, 14 days. An excerpt: In order to detect the efficacy of abamectin/avermectin, ivermectin and the derivative doramectin in the body of a diabetes and obesity mouse model, we choose diabetes and obesity mouse model mice, KK-Ay mice, as the experimental subject.

Another assay relates to wild-type C57BL/6J mice. Briefly: Mouse trial, wild-type mice fed with high-fat diet. The conditions noted are these: high-fat diet, 1.3 mg/kg i.p. daily, 14 days. How it is done: (§1) Wild-type C57BL/6J mice of 9-10 weeks old, and FXR gene deletion homozygous mice (FXR^−/−) and diabetes and obesity mouse model mice (KK-Ay) with the same background are used, fed with high-fat diet (Research Diets, D12492), with free access to water, in SPF grade animal room in experimental animal center, Xiamen University. […] Intraperitoneal injection is performed one time at 9 o'clock every morning, continued for 14 days, and the mice are measured for body weight and the food intake every two days. At the end of 14 days, the mice are provided with free access to water, and after being hungry for 6 h, the mouse body weights are measured, and the percentage of the final body weight relative to the initial body weight before the treatment of the injection trial indicates the change of mouse body weight. Then blood is sampled from the eye balls, and sera are obtained by separation. The components in serum are detected by the following kits respectively: sugar-oxidase method (Beijing Applygen); insulin (Crystal Chem. Inc., USA); total cholesterol and cholesterol in high and low density lipoprotein (Bioassay Systems, USA); triglyceride (Beijing Applygen and WAKO Chemicals Inc., Japan); free fatty acids (Bioassay Systems, USA); and aspartate aminotransferase and alanine aminotransferase (Biosino Bio-technology and Science Inc., Beijing, China). Mouse liver is taken, a part of which is fixed with paraformaldehyde, and embedded with paraffin, sectioned, and stained with hematoxylin and eosin, and a part of which is cryopreserved with liquid nitrogen for use in extracting RNA for measuring gene expression with fluorescence quantitative PCR.

Assay [1] relates to FXR gene deletion homozygous mice (FXR−/−). In words: Mouse trial, FXR knockout mice fed with high-fat diet. Format: in vivo. To be noted: 1.3 mg/kg i.p. daily, 14 days. How it is done:
as §1

[2] abbreviates: i.p. daily 14 days, GW4064 30 mg/kg.

Take `CC(C)c1onc(-c2c(Cl)cccc2Cl)c1COc1ccc(/C=C/c2cccc(C(=O)O)c2)c(Cl)c1` [GW4064]: the “serum free fatty acids” value in the assay with KK-Ay mice (i.p. daily 14 days, ivermectin 1.3 mg/kg, GW4064 30 mg/kg) is “significantly decrease”. Moreover, in the assay with KK-Ay mice (setting [2]), the serum cholesterol result is reported as “significantly decrease” and the serum triglycerides entry is “significantly decrease”.
For `CCC(C)[C@H]1O[C@]2(C=C[C@@H]1C)C[C@@H]1C[C@@H](C/C=C(\C)[C@@H](O[C@H]3C[C@H](OC)[C@@H](O[C@H]4C[C@@H](OC)[C@H](O)[C@@H](C)O4)[C@H](C)O3)[C@@H](C)/C=C/C=C3\CO[C@@H]4[C@H](O)C(C)=C[C@@H](C(=O)O1)[C@]34O)O2` (stereo partly shown) [abamectin/avermectin], in the assay with wild-type C57BL/6J mice, the “cholesterol level in high density lipoprotein” value is listed as “significantly downregulated”; the “cholesterol levels in low density and very low density lipoprotein” value was “downregulated”; the serum cholesterol level entry is recorded as “significantly decreases”; the serum glucose level entry is listed as “significantly decreases”. Also, the “serum triglyceride (Tg) level” value with wild-type C57BL/6J mice was “significantly decrease”. Also, in the assay with KK-Ay mice, the “cholesterol in high density lipoprotein in serum” value is on record as “significantly decrease”, the “cholesterol in low density/very low density lipoprotein in serum” value is “significantly decrease” and the “serum saccharides (glucose) level” value is recorded as “significantly decrease”. In the assay on KK-Ay mice (setting [2]), the serum cholesterol entry is given as “decreased” and the serum triglycerides entry was “significantly decrease”.
For the compound `CO[C@H]1C[C@H](O[C@H]2[C@H](C)O[C@@H](O[C@@H]3/C(C)=C/C[C@@H]4C[C@@H](C[C@]5(C=C[C@H](C)[C@@H](C6CCCCC6)O5)O4)OC(=O)[C@@H]4C=C(C)[C@@H](O)[C@H]5OC/C(=C\C=C\[C@@H]3C)[C@]54O)C[C@@H]2OC)O[C@@H](C)[C@@H]1O` [doramectin], in the assay on wild-type C57BL/6J mice, the “cholesterol level in high density lipoprotein” value was “significantly downregulated”; the “cholesterol levels in low density and very low density lipoprotein” value is recorded as “downregulated”; the serum cholesterol level result is “significantly decreases”; the serum glucose level result is on record as “significantly decreases”. In addition, the “serum triglyceride (Tg) level” value in the assay on wild-type C57BL/6J mice is reported as “significantly decrease”. Moreover, in the assay on KK-Ay mice, the “cholesterol in high density lipoprotein in serum” value is reported as “significantly decrease”, the “cholesterol in low density/very low density lipoprotein in serum” value was “significantly decrease” and the “serum saccharides (glucose) level” value is listed as “significantly decrease”. In addition, in the assay with KK-Ay mice (setting [2]), the serum cholesterol result is recorded as “decreased” and the serum triglycerides entry was “significantly decrease”. Moreover, in assay [1], the serum cholesterol level result is “not producing any significant change” and the serum glucose level result is “not producing any significant change”.
